In brackets after ≈: the same amount, converted by molar mass. Where two headings read alike, the source gives them in different places.
Legend:
Format in all cases: cell-based, Streptococcus pneumoniae
pneumococci [1] = experiment: E-test MICs; conditions: 200 strains
Procedure: (§1) Cultures were maintained at −70° C. in double-strength skim milk (Difco Laboratories, Detroit, Mich.). Gemifloxacin susceptibility powder, disks and E-tests (AB Biodisk, Solna, Sweden) were obtained from SmithKline Beecham Laboratories, Collegeville, Pa., USA. Standard methodology was used (Clark, et al., J. Clin. Microbiol. 36:3579-3584, 1998). Mueller-Hinton plates supplemented with 5% sheep blood (BBL Microbiology Systems, Cockeysville, Md., USA) were inoculated with a 0.5 McFarland suspension harvested from plates, and E-test strips (AB Biodisk, Solna, Sweden) placed on each. After overnight incubation at 35° C., the MIC was read as the intersect where the ellipse of growth inhibition intersects the strip. E-test MICs were performed both in air and in CO2. E-test MICs were rounded up to the next highest doubling dilution.

pneumococci [2] = experiment: Microdilution MICs (NCCLS); conditions: microdilution (air), 200 strains
Procedure: (§2) Cultures were maintained at −70° C. in double-strength skim milk (Difco Laboratories, Detroit, Mich.). Gemifloxacin susceptibility powder, disks and E-tests (AB Biodisk, Solna, Sweden) were obtained from SmithKline Beecham Laboratories, Collegeville, Pa., USA. These were determined by the method recommended by the NCCLS, (Methods for Dilution Antimicrobial Susceptibility Tests for Bacteria that Grow Aerobically, 4th Edition, NCCLS, Villanova, Pa., 1997) using cation-adjusted Mueller-Hinton broth (Difco Laboratories) supplemented with 5% lysed defibrinated horse blood. Trays were prepared in-house. Suspensions with a turbidity equivalent to that of a 0.5 McFarland standard were prepared by suspending growth from blood agar plates in 2 ml Mueller-Hinton broth. Suspensions were further diluted 1:10 to obtain a final inoculum (10 μL) containing 5×10^5 CFU/mL. Trays were incubated 20-24 hours in ambient air at 35° C. Standard quality control strains (as above) were included in each run.

pneumococci [3] = experiment: Agar dilution MICs; conditions: for MIC50 / MIC90: Streptococcus pneumoniae
Procedure: (§3) Cultures were maintained at −70° C. in double-strength skim milk (Difco Laboratories, Detroit, Mich.). Gemifloxacin susceptibility powder, disks and E-tests (AB Biodisk, Solna, Sweden) were obtained from SmithKline Beecham Laboratories, Collegeville, Pa., USA.
(§4) These were performed (Jacobs, et al., Clin. Infect. Dis. 15:119-127, 1992 and Clark, et al., J. Clin. Microbiol. 36:3579-3584, 1998) on Mueller-Hinton agar supplemented with 5% sheep blood, incorporating compounds at concentrations from 0.002-8 μg/ml in doubling dilutions. Inocula were prepared by suspending growth from overnight cultures in Mueller-Hinton broth to a turbidity of a 0.5 McFarland standard. Final inocula contained 10^4 organisms/spot. Plates were inoculated with a Steers replicator with 3 mm inoculating pins, and incubated overnight at 35° C. in ambient air. The lowest concentration of antibiotic showing no growth was read as the MIC. Quality control strains—Staphylococcus aureus […] and Streptococcus pneumoniae ATCC 49619—were included in each run.

pneumococci [4] = experiment: Disk diffusion, 5 μg gemifloxacin disks; conditions: for zone of inhibition at 5 µg/disc: Streptococcus pneumoniae, 5 μg disk, read-out: zone diameter
Procedure: as §3
This was by standard NCCLS methodology (Performance Standards for Antimicrobial Disk Susceptibility Tests, 6th Edition, NCCLS, Villanova, Pa., 1997) using 5 μg gemifloxacin disks (BBL) and Mueller-Hinton plates supplemented with 5% sheep blood (BBL), inoculated with a 0.5 McFarland suspension. After overnight incubation in both air and 5% CO2 at 35° C., zone diameters were measured with calipers.

pneumococci [5] = experiment: MIC testing, all methods together (agar dilution, microdilution, E-test); conditions: agar dilution and microdilution in air, E-test in air and CO2, all strains
Procedure: as §4
as §2, with “These” for “Cultures were maintained at −70° C. in double-strength skim milk (Difco Laboratories, Detroit, Mich.). Gemifloxacin susceptibility powder, disks and E-tests (AB Biodisk, Solna, Sweden) were obtained from SmithKline Beecham Laboratories, Collegeville, Pa., USA. These”
as §1, with “Standard” for “Cultures were maintained at −70° C. in double-strength skim milk (Difco Laboratories, Detroit, Mich.). Gemifloxacin susceptibility powder, disks and E-tests (AB Biodisk, Solna, Sweden) were obtained from SmithKline Beecham Laboratories, Collegeville, Pa., USA. Standard”

[6] = agar dilution (air), all 200 strains
[7] = agar dilution, 39 ciprofloxacin-resistant strains (ciprofloxacin MIC ≧8.0 μg/ml)
[8] = agar dilution, 161 ciprofloxacin-susceptible strains (ciprofloxacin MIC ≦4.0 μg/ml)

- MIC50 (pneumococci [1]; E-test (CO2)): 0.016 µg/mL (≈ 0.0411 µM)
- MIC range (pneumococci [1]; E-test (CO2)): 0.008 to 0.5 µg/mL
- MIC range (pneumococci [1]; E-test (CO2), listed as gemifloxacin): 0.00 to 0.5 µg/mL
- MIC range (pneumococci [1]; E-test (air)): 0.008 to 0.5 µg/mL
- MIC90 (pneumococci [1]; Streptococcus pneumoniae, E-test (CO2)): 0.25 µg/mL (≈ 0.642 µM)
- MIC90 (pneumococci [1]; Streptococcus pneumoniae, E-test (air)): 0.125 µg/mL (≈ 0.321 µM)
- MIC50 (pneumococci [1]; Streptococcus pneumoniae, E-test (air), read-out: MIC50): 0.016 µg/mL (≈ 0.0411 µM)
- MIC50 (pneumococci [2]; Streptococcus pneumoniae): 0.016 µg/mL (≈ 0.0411 µM)
- MIC90 (pneumococci [2]; Streptococcus pneumoniae): 0.125 µg/mL (≈ 0.321 µM)
- MIC range (pneumococci [2]): 0.004 to 0.5 µg/mL
- MIC50 (pneumococci [3]; [6]): 0.03 µg/mL (≈ 0.077 µM)
- MIC90 (pneumococci [3]; [6]): 0.25 µg/mL (≈ 0.642 µM)
- MIC50 (pneumococci [3]; [7]): 0.25 µg/mL (≈ 0.642 µM)
- MIC90 (pneumococci [3]; [7]): 0.5 µg/mL (≈ 1.28 µM)
- MIC50 (pneumococci [3]; [8]): 0.03 µg/mL (≈ 0.077 µM)
- MIC90 (pneumococci [3]; [8]): 0.03 µg/mL (≈ 0.077 µM)
- MIC range (pneumococci [3]; [6]): 0.004 to 1.0 µg/mL
- MIC range (pneumococci [3]; agar dilution (air), all 200 strains, listed as gemifloxacin): 0.004 to 1 µg/mL
- MIC range (pneumococci [3]; [7]): 0.03 to 1 µg/mL
- MIC range (pneumococci [3]; agar dilution, 39 ciprofloxacin-resistant strains (ciprofloxacin MIC ≧8.0 μg/ml), listed as gemifloxacin): 0.03 to 1.0 µg/mL
- MIC range (pneumococci [3]; [8]): 0.004 to 0.06 µg/mL
- MIC50s, range over methods (pneumococci [5]): 0.016 to 0.03 µg/mL
- MIC90s, range over methods (pneumococci [5]): 0.125 to 0.25 µg/mL
- MIC range over all methods (pneumococci [5]): 0.004 to 1.0 µg/mL
Structure (SMILES): CO/N=C1\CN(c2nc3c(cc2F)c(=O)c(C(=O)O)cn3C2CC2)CC1CN (racemic) [Gemifloxacin, (R,S)-7-(3-aminomethyl-4-methoxyiminopyrrolidin-1-yl)-1-cyclopropyl-6-fluoro-4-oxo-1,4-dihydro-1,8-naphthyridine-3-carboxylic acid]
- zone of inhibition at 5 µg/disc (pneumococci [4]; in CO2, ciprofloxacin-resistant strains, full range): 18 to 31 mm
- zone of inhibition at 5 µg/disc (pneumococci [4]; in CO2, ciprofloxacin-resistant strains, most strains): 21 to 26 mm
- zone of inhibition at 5 µg/disc (pneumococci [4]; in air, quinolone-resistant strains, most strains): < 31 mm
- zone of inhibition at 5 µg/disc (pneumococci [4]; incubated in CO2, all ciprofloxacin-susceptible strains): ≥ 26 mm
- zone of inhibition at 5 µg/disc (pneumococci [4]; incubated in air, quinolone-susceptible strains): ≥ 28 mm
- zone diameter (pneumococci [4]; most quinolone-susceptible strains): > 25 mm
- zone diameter in air wider than in CO2 (pneumococci [4]; most strains, air versus CO2): 1-3 mm
